Publication PMC4198181, “Gold(I) Complexes of 9-Deazahypoxanthine as Selective Antitumor and Anti-Inflammatory Agents” (PLoS ONE, 2014)

Columns and labels:
Assay type in all cases: cell-based, human
HOS osteosarcoma cells = assay: MTT in vitro cytotoxicity, HOS; settings: 24 h treatment, read-out: IC50±S.E., HOS
Procedure: (§1) In vitro cytotoxic activity was determined by the MTT assay in human breast adenocarcinoma (MCF7; ECACC no. 86012803), human osteosarcoma (HOS; ECACC no. 87070202), lung carcinoma (A549; ECACC no. 86012804), malignant melanoma (G361; ECACC no. 88030401), cervix epitheloid carcinoma (HeLa; ECACC no. 93021013), ovarian carcinoma (A2780; ECACC no. 93112519), cisplatin-resistant ovarian carcinoma (A2780R; […] ECACC no 105092802) cancer cell lines, purchased from European Collection of Cell Cultures (ECACC). […] The primary culture of human hepatocytes (HEP220, batch number HEP220819) was obtained from Biopredic International (France). The culture medium was Williams and HAM's F-12 (1∶1) supplemented with penicillin, streptomycin, ascorbic acid, linoleic acid, holo-transferin, ethanolamine, glucagon, insulin, dexamethasone, pyruvate, glucose, glutamine, amphotericin. The medium was enriched for plating with 2% foetal calf serum (v/v). The medium was exchanged for a serum-free medium the day after and the culture was stabilized for additional 24 h. Thereafter, the cells were ready for treatments. […] The MTT assay was performed spectrophotometrically at 540 nm (TECAN, Schoeller Instruments LLC). The cytotoxicity data were expressed as the percentage of viability, where 100% represented the treatments with vehicle (0.1% DMF or 0.1% DMSO). The cytotoxicity data from the cancer cell lines were acquired from three independent experiments (conducted in triplicate) using cells from different passages. The IC50 values were calculated from viability curves. The results are presented as arithmetic means±standard error of the mean (S.E.).

[1] = system: A549 lung carcinoma cells; assay: MTT in vitro cytotoxicity, A549; settings: 24 h treatment, read-out: IC50±S.E., A549
Procedure: as §1

[2] = system: G361 malignant melanoma cells; assay: MTT in vitro cytotoxicity, G361; settings: 24 h treatment, read-out: IC50±S.E., G361
Procedure: as §1

[3] = system: A2780 ovarian carcinoma cells; assay: MTT in vitro cytotoxicity, A2780; settings: 24 h treatment, read-out: IC50±S.E., A2780
Procedure: as §1

[4] = system: THP-1 monocytic leukaemia cells; assay: WST-1 in vitro cytotoxicity, THP-1; settings: 24 h treatment, WST-1, 0.16–10.00 µM; read-out: IC50±S.E., THP-1
Procedure: Before the in vitro anti-inflammatory testing, in vitro cytotoxicity on human monocytic leukaemia cells (THP-1, ECACC no. 88081201) was determined using the WST-1 assay. The THP-1 cells (floating monocytes, 500 000 cells/mL) were incubated in 100 µL of the serum-free RPMI 1640 medium and seeded into 96-well plates in triplicate at 37°C. Measurements were taken 24 h after the treatment with the tested compounds dissolved in 0.1% DMSO in the concentration range of 0.16–10.00 µM. Viability was determined by the WST-1 test according to the manufacturer's manual. The amount of the formed formazan (which correlates to the number of metabolically active cells in the culture) was calculated as a percentage of the control cells, which were treated only with 0.1% DMSO and was set-up as 100%. The IC50 values of the tested compounds were calculated from the obtained data. The WST-1 assay was performed spectrophotometrically at 440 nm (FLUOstar Omega, BMG Labtech).
The cytotoxicity data were expressed as the percentage of viability, where 100% represented the treatments with vehicle (0.1% DMF or 0.1% DMSO). The cytotoxicity data from the cancer cell lines were acquired from three independent experiments (conducted in triplicate) using cells from different passages. The IC50 values were calculated from viability curves. The results are presented as arithmetic means±standard error of the mean (S.E.). The significance of the differences between the results was assessed by the ANOVA analysis with p<0.05 considered to be significant (QC Expert 3.2, Statistical software, TriloByte Ltd., Pardubice, Czech Republic).

[5] = system: IκB-α degradation (NF-κB signalling pathway); assay: LPS-induced IκB-α degradation (Western blot) in THP-1 macrophages; settings: 300 nM, 30 min after LPS
Procedure: Macrophage-like THP-1 cells were pretreated with the tested compounds and stimulated by LPS as was describe above. Thirty minutes after the addition of LPS, the medium was aspirated and cells were washed by cold phosphate buffer solution (PBS). Subsequently, the cells were collected using the lysis buffer [50 mM Tris-HCl pH 7.5, 1 mM EGTA, 1 mM EDTA, 1 mM sodium orthovanadate, 50 mM sodium fluoride, 5 mM sodium pyrophosphate, 270 mM sucrose, 0.1% (v/v) Triton X-100, and cOmplete Protease Inhibitor Cocktail (Roche, Germany)] and scraper. The lysis of cells was facilitated by a short (≈30 s) incubation in the ultrasonic water bath. The protein concentration was determined according to Bradford's method. For protein separation, 30 µg of protein was loaded onto the 12% polyacrylamide gel. […] The membranes were incubated with the primary anti-IκB-α antibody at the concentration ratio of 1∶500, or with the primary anti-β-actin at the concentration ration of 1∶5 000 at 4°C for 16 h. After washing, the secondary anti-mouse IgG antibody diluted 1∶2 000 was applied on the membranes and incubated at laboratory temperature (22°C) for 1 h. The amount of the bound secondary antibody was detected colorimetrically by an Opti-4CN Kit according to the manufacturer's manual.

SMILES | IC50 (HOS osteosarcoma cells) [µM] | IC50 [1] [µM] | IC50 [2] [µM] | IC50 [3] [µM] | IC50 [4] [µM] | effect on LPS-induced IκB degradation [5]
CC(C)Oc1ncnc2cc[n]([Au])c12.c1ccc(P(c2ccccc2)c2ccccc2)cc1 [complex 2, [Au(L2)(PPh3)]] | 0.9 ± 0.2 | 17.2 ± 0.7 | 3.4 ± 0.1 | 4 ± 0.2 | 0.8 ± 0.1 | block moderately the IκB degradation
[Au][n]1ccc2ncnc(OCCc3ccccc3)c21.c1ccc(P(c2ccccc2)c2ccccc2)cc1 [complex 5] | 2.9 ± 0.1 | 18.3 ± 0.5 | 3.5 ± 0.2 | 4.4 ± 0.3 | 1.4 ± 0.1 | block moderately the IκB degradation
